The record followed here is EP0369035A1, “AGENT FOR TREATING PANCREATITIS OR THE LIKE” (priority 1988, dated 1989).

Data set [1] is described as follows: Measurement of half life in blood. The format is in vivo. Conditions: rat, iv; administered to the tail vein, SD-rats, plasma, HPLC. The method, then:
[VI] Measurement of half life in blood
SD-rats 6 to 7 weeks old were used. The test substance was dissolved in an injective 5% glucose solution and administered to the tail vein. After the administration, blood samples were periodically obtained from the great vein and placed into heparinized test tubes. Plasma was separated by centrifugation and the test substance was extracted with ethyl acetate. After removal of the solvent, the residue was dissolved in 200 µl of methanol, and analyzed by high performance liquid chromatography. From the change of the concentration of the test substance in blood with time, a half life thereof in blood was calculated.

The target of data set [2] is T1, human plasmin (Homo sapiens, UniProt P00747).
T1 construct: 50 µl of 0.2 casein units/ml of human plasmin
T1 sequence (P00747 581-810 limits assumed): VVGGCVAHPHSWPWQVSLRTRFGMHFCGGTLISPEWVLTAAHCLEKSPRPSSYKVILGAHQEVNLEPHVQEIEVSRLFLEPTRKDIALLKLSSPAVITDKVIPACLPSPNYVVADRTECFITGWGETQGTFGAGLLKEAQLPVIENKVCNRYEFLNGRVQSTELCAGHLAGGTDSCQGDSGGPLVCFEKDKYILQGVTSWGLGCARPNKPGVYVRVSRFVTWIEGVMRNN
T1 sequence (P00747 97-580 partner limits assumed): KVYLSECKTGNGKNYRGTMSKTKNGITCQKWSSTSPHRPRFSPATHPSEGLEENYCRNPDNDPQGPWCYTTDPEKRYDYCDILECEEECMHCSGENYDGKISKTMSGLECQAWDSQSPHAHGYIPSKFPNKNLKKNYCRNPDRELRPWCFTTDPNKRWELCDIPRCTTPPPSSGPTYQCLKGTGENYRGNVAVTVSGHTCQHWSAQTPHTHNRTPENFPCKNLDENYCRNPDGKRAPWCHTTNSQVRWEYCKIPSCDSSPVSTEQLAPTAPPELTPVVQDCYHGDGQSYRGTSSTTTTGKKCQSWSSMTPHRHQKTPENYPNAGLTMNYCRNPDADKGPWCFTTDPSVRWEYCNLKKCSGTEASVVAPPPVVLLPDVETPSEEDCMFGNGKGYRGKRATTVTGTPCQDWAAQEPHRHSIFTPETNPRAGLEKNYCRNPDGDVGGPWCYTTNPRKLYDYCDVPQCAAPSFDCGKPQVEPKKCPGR
In words: Anti-plasmin activity: inhibition of S-2251 degradation. The format is biochemical. Conditions: substrate S-2251, 37°C, pH7.4; read-out: Plasmin S-2251 (I50). How it is done: ii) Assay method of inhibition of S-2251 degradation
The test substance was dissolved in a 0.05 M Tris-HC1 (pH7.4) buffer to make a total volume of 400 µl, and 50 µl of a 3 mM S-2251 solution was added to the solution. The mixture was incubated at 37°C for 5 minutes in an incubator, and after the addition of 50 µl of 0.2 casein units/ml of human plasmin, and incubation at 37°C for 4 minutes, the reaction was terminated by an addition of 50 µl of 50% acetic acid.

The target in data set [3] is T1, human plasmin. As to the kind of experiment: Anti-plasmin activity: inhibition of fibrinolysis (fibrin clot lysis time). It counts as biochemical. The conditions noted are these: concentration giving a fibrin clot lysis time twice that of control, 37°C, pH7.4; read-out: Plasmin Fibrin (I50).
Another data set has as its system experimental DIC. In words: Effect on experimental DIC and MOF (endotoxin-induced). The format is in vivo, SD-rats. Conditions: rat, 4 hours after endotoxin 10 mg/kg; for CPK: Table 5-1. How it is done: [III] Effect on experimental DIC
SD-rats, body weight of about 200 g, were starved overnight. Sodium pentobarbital was intraperioneally administered to anesthetize a rat, and then a cannula was inserted to the femoral vein, and the test substance dissolved in an injective 5% glucose solution was continually infused. Then, 10 minutes from the start of the injection, endotoxin (E. coli 0127:B8, Difco, U.S.) dissolved in physiological saline was injected through the tail vein to an amount of 10 mg/kg body weight, and 4 hours from the administration of endotoxin, the abdomen was opened, blood was obtained from the abdominal aorta, and platelets (Plt), fibrinogen (Fbg), fibrin degradation product (FDP), glutamic oxaloacetic transamirase (GOT), creatinine phosphokinase (CPK), and blood urin nitrogen (BUN) were measured.

A further data set can be described thus: in vivo. The conditions noted are these: mouse, intravenous, ICR male mice, up-and-down method, read-out: Acute toxicity (LD50). How it is done:
ICR male mice 5 to 10 weeks old were used. The test substance was dissolved in a 5% dimethylsulfoxide aqueous solution, and the solution was intravenously administered in an amount of 0.1 to 0.2 ml/10 g body weight. An LD50 value was calculated by up-and-down method.

The next data set addresses T2, human plasma kallikrein (Homo sapiens, UniProt P03952).
T2 construct: 50 µl of 0.12 units/ml human plasma kallikrein solution
As to the kind of experiment: Anti-plasma kallikrein activity: inhibition of S-2302 degradation. It counts as biochemical. The conditions noted are these: substrate S-2302, 37°C, pH 7.8; read-out: Plasma kallikrein S-2302 (I50). The method, then:
2) Assay of anti-plasma kallikrein activity Assay method of inhibition of S-2302 degradation
The test substance was dissolved in a 0.05 M Tris-HC1 (pH 7.8) buffer to make a total volume of 400 µl, and 50 µl of a 2 mM S-2302 solution was added to the solution. After incubation at 37°C for 5 minutes in an incubator, an addition of 50 µl of 0.12 units/ml human plasma kallikrein solution, and incubation at 37°C for 5 minutes, the reaction was terminated by an addition of 50 µl of 50% acetic acid.

Another data set has as its system experimental shock. As to the kind of experiment: Effect on experimental shock (endotoxin-induced), survival ratio. It counts as in vivo, ICR-mice. The conditions noted are these: dose of 30 mg/kg intraperitoneally 15 minutes before endotoxin 40 mg/kg, mouse. The method, then: [IV] Effect on experimental shock
ICR-mice, body weight of about 25 g, were starved overnight. The test substance was dissolved in an injective 5% glucose solution and intraperioneally administered, and 15 minutes later, endotoxin (E. coli 0127:B8, Difco, U.S.) dissolved in a physiological saline was intraperioneally administered to an amount of 40 mg/kg body weight.

Data set [4] relates to experimental pancreatitis. In words: Effect on experimental pancreatitis (sodium taurochorate + trypsin into the common bile duct), survival ratio. The format is in vivo, SD-rats. Also noted: Effect on experimental pancreatitis (100 mg/kg p.o.) After 24 hours / Effect on experimental pancreatitis (100 mg/kg p.o.) After 48 hours / Effect of existing control drug on experimental pancreatitis After 24 hours: unit not given here. The conditions noted are these: rat; for Effect on experimental pancreatitis Survival ratio(%) After 24 hours / Effect on experimental pancreatitis Survival ratio(%) After 48 hours: 80 μg/kg/min. x 80 min. continuous infusion; for Effect on experimental pancreatitis (100 mg/kg p.o.) After 24 hours / Effect on experimental pancreatitis (100 mg/kg p.o.) After 48 hours: 100 mg/kg p.o. 30 minutes before pancreatitis. An excerpt:
[II] Effect on experimental pancreatitis
SD-rats, body weight of about 200 g were, starved overnight, and 10 to 24 animals were used in one group. Sodium pentobarbital was intraperioneally administered to anesthetize each rat, and then a cannula was inserted to the femoral vein for the administration of the test substance. After abdominal surgery, the bile duct was blocked at a part thereof proximate to the liver, by a clip, a polyethylene tube was inserted to the common bile duct at a part thereof most proximate to the duodenum, and 0.1 ml of solution containing 2 mg sodium taurochorate and 1000 U trypsin dissolved in physiological saline was injected retrogrodely. After removal of the clip and tube, the common bile duct was ligated and the abdomen was closed. Note, the test substance was dissolved in an injective 5% glucose solution, and in the case of a continuous infusion, the solution was administered over 80 minutes starting from 10 minutes before the generation of pancreatitis. In the case of oral administration, the test substance was administered through an oral catheter 30 minutes before the generation of pancreatitis. After 24 hours and 48 hours from the generation of pancreatitis, the survival ratio of the animals was calculated and compared with a control group.

A further data set addresses human urokinase (Homo sapiens, UniProt P00749). As to the kind of experiment: Anti-urokinase activity: inhibition of S-2444 degradation. Conditions: substrate S-2444, 37°C, pH 8.8; read-out: Urokinase S-2444 (I50). The format is biochemical. How it is done:
3) Assay of anti-urokinase activity Assay method of inhibition of S-2444 degradation
The test substance was dissolved in a 0.05 M Tris-HC1 (pH 8.8) buffer to make a total volume of 400 µl, and 50 µl of a 1 mM S-2444 solution was added to the mixture. After incubation at 37°C for 5 minutes in an incubator, an addition of 50 µl of 500 units/ml human urokinase solution, and incubation at 37°C for 5 minutes, the reaction was terminated by an addition of 50 µl of 50% acetic acid.

Data set [5] concerns the target T3, bovine factor Xa (Bos taurus, UniProt P00743).
T3 construct: 0.05 ml of 0.3 vial/ml bovine factor Xa
In words: Anti-FXa activity: inhibition of S-2222 degradation. It counts as biochemical. Conditions: substrate S-2222, 37°C, pH 8.3; read-out: FXa S-2222 (I50). How it is done: 4) Assay of anti-FXa activity Assay method of inhibition of S-2222 degradation
To 0.4 ml of the test substance dissolved in a 0.05 M Tris-HC1 (pH 8.3) buffer is added 0.05 ml of 3 mM S-2222 solution, and after incubation at 37°C for about 4 minutes, an addition of 0.05 ml of 0.3 vial/ml bovine factor Xa, and a reaction at 37°C for 4 minutes, the - reaction was terminated by adding 0.05 ml of 50% acetic acid.

The target of data set [6] is T3, bovine factor Xa. Described as above. The format is biochemical. Conditions: Table 3-2, existing control drugs; substrate printed as S-2238; read-out: FXa S-2238 (I50).

Each structure is given as a SMILES string. Like-named read-outs stand apart in the source and are kept apart here.

T2 sequence (P03952 391-638 limits assumed): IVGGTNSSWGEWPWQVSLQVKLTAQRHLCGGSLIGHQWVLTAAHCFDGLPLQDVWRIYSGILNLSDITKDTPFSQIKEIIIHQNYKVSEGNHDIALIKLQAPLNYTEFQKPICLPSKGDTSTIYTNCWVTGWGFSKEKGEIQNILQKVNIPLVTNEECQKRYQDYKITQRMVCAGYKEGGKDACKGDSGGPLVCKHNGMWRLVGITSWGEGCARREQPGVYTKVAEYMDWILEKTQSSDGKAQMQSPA
T2 sequence (P03952 20-390 partner limits assumed): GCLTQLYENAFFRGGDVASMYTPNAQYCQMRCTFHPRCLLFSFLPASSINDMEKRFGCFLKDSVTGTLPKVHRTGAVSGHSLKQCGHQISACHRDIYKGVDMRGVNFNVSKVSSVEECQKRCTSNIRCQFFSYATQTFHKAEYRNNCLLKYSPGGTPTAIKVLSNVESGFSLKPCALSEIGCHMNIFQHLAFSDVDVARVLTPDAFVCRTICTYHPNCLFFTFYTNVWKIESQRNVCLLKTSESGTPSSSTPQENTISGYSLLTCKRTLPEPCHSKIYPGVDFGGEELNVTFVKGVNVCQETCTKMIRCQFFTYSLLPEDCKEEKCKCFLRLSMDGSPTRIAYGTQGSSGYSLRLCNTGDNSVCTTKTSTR
T3 sequence (P00743 234-492 limits assumed): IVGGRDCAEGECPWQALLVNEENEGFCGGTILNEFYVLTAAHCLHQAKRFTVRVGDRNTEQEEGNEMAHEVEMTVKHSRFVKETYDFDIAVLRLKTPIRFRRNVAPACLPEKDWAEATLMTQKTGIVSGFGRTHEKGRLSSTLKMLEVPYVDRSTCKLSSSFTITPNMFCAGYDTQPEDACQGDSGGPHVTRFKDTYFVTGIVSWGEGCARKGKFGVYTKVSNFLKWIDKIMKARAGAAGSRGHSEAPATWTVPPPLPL
T3 sequence (P00743 41-180 partner limits assumed): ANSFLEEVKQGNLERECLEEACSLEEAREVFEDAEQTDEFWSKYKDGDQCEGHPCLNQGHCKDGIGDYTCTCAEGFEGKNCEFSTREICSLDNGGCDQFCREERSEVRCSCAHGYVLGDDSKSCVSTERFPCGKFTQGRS

As for `CC(=O)c1ccc(NC(=O)[C@H](Cc2ccc(OCc3ccccn3)cc2)NC(=O)[C@H]2CC[C@H](CN)CC2)cc1` [Compound 6], in data set [1], the half-life (in general, the time needed for the level to fall by half in the phase considered) was 12.2 min. The IC50 at human plasmin [2] was found to be 2700 nM. The IC50 at human plasmin [3] amounted to 1400 nM. In addition, in the data set on experimental DIC (Dose 1 μg/kg/min infusion), the BUN worked out at 36 ± 2 mg/dL, the FDP fell in the range of 32 to 65 µg/mL, the Fbg was 140 ± 18 mg/dL and the GOT came out at 217 ± 29 U/ml. Also, in the data set on experimental DIC (Dose 1 μg/kg/min infusion), the Plat is 68 ± 11 x 10^4/μl. In addition, in the data set on experimental DIC (Dose 10 μg/kg/min infusion), the BUN is 26 ± 2 mg/dL, the FDP fell in the range of 8 to 32 µg/mL, the Fbg is 179 ± 15 mg/dL and the GOT is listed as 196 ± 28 U/ml. For the same compound, in the data set with experimental DIC (Dose 10 μg/kg/min infusion), the Plat is given as 95 ± 14 x 10^4/μl and the CPK amounted to 22 ± 6 U/1. In “in vivo”, the LD50 – broadly, the dose at which mortality reaches 50% – amounted to 85 mg/kg. Moreover, the IC50 at human plasma kallikrein is 2000 nM. Further, in the data set on experimental shock, the “Effect on experimental shock (Survival ratio (%) after 24 hours)” value was determined as 70%. Also, in [4], the “Effect on experimental pancreatitis Survival ratio(%) After 24 hours” value was determined as 62.5% and the “Effect on experimental pancreatitis Survival ratio(%) After 48 hours” value was 54.1%. In [4] (survival ratio), the “Effect on experimental pancreatitis (100 mg/kg p.o.) After 24 hours” value was 66.7 and the “Effect on experimental pancreatitis (100 mg/kg p.o.) After 48 hours” value was 53.3. For the same compound, the IC50 at human urokinase worked out at 75000 nM. Also, the IC50 on bovine factor Xa [5] was determined as 160000 nM.
As for `NC[C@H]1CC[C@H](C(=O)N[C@@H](Cc2ccc([N+](=O)[O-])cc2)C(=O)Nc2ccc(C(=O)c3ccccc3)cc2)CC1` [Compound 10], in [1], the half-life amounted to 6.8 min. In addition, on human plasmin [2], the IC50 turned out to be 7000 nM. Besides, at human plasmin [3], the IC50 was determined as 1800 nM. In the data set with experimental DIC (Dose 10 μg/kg/min infusion), this compound gave a BUN of 32 ± 2 mg/dL, an FDP of 16 to 128 µg/mL, a Fbg of 109 ± 30 mg/dL and a GOT of 302 ± 29 U/ml. In addition, the Plat with experimental DIC (Dose 10 μg/kg/min infusion) was 68 ± 8 x 10^4/μl. In the data set on experimental DIC (Dose 100 μg/kg/min infusion), this compound yielded a BUN of 30 ± 2 mg/dL, an FDP of 16 to 128 µg/mL, a Fbg of 128 ± 32 mg/dL and a GOT of 258 ± 60 U/ml. In the data set on experimental DIC (Dose 100 μg/kg/min infusion), the Plat is on record as 66 ± 10 x 10^4/μl and the CPK was determined as 20 ± 5 U/1. Also, in “in vivo”, the LD50 is 85 mg/kg. Further, the IC50 at human plasma kallikrein was determined as 2700 nM. The “Effect on experimental shock (Survival ratio (%) after 24 hours)” value in the data set with experimental shock was 79%. In [4], the “Effect on experimental pancreatitis Survival ratio(%) After 24 hours” value is given as 50.0% and the “Effect on experimental pancreatitis Survival ratio(%) After 48 hours” value was 33.3%. For the same compound, in [4] (survival ratio), the “Effect on experimental pancreatitis (100 mg/kg p.o.) After 24 hours” value amounted to 66.7 and the “Effect on experimental pancreatitis (100 mg/kg p.o.) After 48 hours” value is listed as 53.3. The IC50 on human urokinase worked out at 5000 nM.
On to `N=C(N)c1ccc2cc(OC(=O)c3ccc(N=C(N)N)cc3)ccc2c1` [FUT-175, nafamostat mesilate, reference compound], for which the half-life in [1] lay within 2 to 3 min. Besides, in the data set “in vivo”, the LD50 is 24 mg/kg. Moreover, the IC50 at human plasma kallikrein worked out at 80 nM; at bovine factor Xa [6] it was 5800 nM; on human urokinase, 10 nM. The “Effect of existing control drug on experimental pancreatitis After 24 hours” value in data set [4] (survival ratio, 50 μg/kg/min x 80 min) was 33.3.
